Data as given in US20210311024A1, “NON-CLINICAL TEST METHOD CHARACTERIZED BY QUANTITATIVE EVALUATION OF EXPERIMENTAL ANIMAL SPECIMEN” (Konica Minolta, Inc., priority 2016, published 2021).

Experiments:
Format in all cases: in vivo
[1] = system: hemato-lymphoid humanized model mice transplanted with tumor tissue of lung cancer patients; test: Nivolumab drug efficacy in hemato-lymphoid humanized model mice transplanted with lung cancer tissue, Example 5; settings: 100 mg/kg i.v. twice a day, 42 times; 21 days after first administration
Excerpt: Hemato-lymphoid humanized mice, produced by transplanting human hematopoietic stem cells into mice with acquired immune deficiency, were transplanted with tumor tissue, to prepare hemato-lymphoid humanized model mice, which are one type of patient-derived tumor-transplanted mice. Tumor tissues collected from six lung cancer patients were purchased from SofiaBio, and the thus produced hemato-lymphoid humanized mice were each subcutaneously transplanted with the tumor tissue, having a size of 2 mm square, of one of the patients (five mice transplanted with the tumor tissue of one patient were produced for each of the patients). To each of the model mice whose tumor tissue had grown to the size of about 300 mm^3 one month after the transplantation, 100 mg/kg of an anti-human PD-1 monoclonal antibody preparation, nivolumab (trade name: Opdivo) was administered intravenously twice a day, for a total of 42 times. In the same manner as in Example 1, the tumor volume was measured before the first administration and 21 days after the first administration. At the same time, a tissue section was collected from each of the mice, and sample slides were prepared in the same manner as in Example 1. […]

[2] = system: PDX mice each transplanted with the breast cancer tissue of one of six patients (A to F); test: Lapatinib drug efficacy in PDX mice selected for low CD140a score, Example 4; settings: three mice per group selected for low CD140a score; 100 mg/kg i.v. twice a day, 42 times; 21 days after first administration
Experimental: PDX mice each transplanted with the breast cancer tissue (volume: about 200 mm^3) of one of six patients (A to F), which were the same as those used in Example 1, were purchased, five mice for each of the patients. These PDX mice were reared, and the size of the tumor in each mouse was measured every 3 or 4 days. When the tumor volume reached 500 mm^3, tumor tissue was collected from each mouse using a scalpel.
The observation and image capture of the immunostained images and the stained images for morphological observation were carried out in the same manner as in Example 1, to measure the PID score or the DAB score of CD140a. […]
To each of the thus selected three PDX mice, in each group, 100 mg/kg of lapatinib (trade name: Tykerb) was administered intravenously twice a day, for a total of 42 times, in the same manner as in Example 1, and the tumor volume was measured before the first administration, and 21 days after the first administration. […] The collected tissue sections were used for the quantification of the expression level of HER2 protein as the target protein, in the same manner as in Example 1.

[3] = system: PDX mice each transplanted with the breast cancer tissue of one of six patients (A to F); test: Lapatinib drug efficacy (tumor volume) in breast cancer PDX mice, Example 1; settings: 100 mg/kg i.v. twice a day, 42 times; for Tumor size (size at the start of administration is taken as 100%): 21 days after first administration
Experimental: To each of these PDX mice, 100 mg/kg of lapatinib (Trade name: Tykerb) was administered intravenously twice a day, for a total of 42 times. The measurement of the tumor volume was carried out before the administration and 21 days after the first administration. At the same time, a tissue section was collected from each mouse using a frozen needle, at each time point. The collected tissue sections were subjected to a formalin fixation treatment and a paraffin-embedding treatment, and then sliced to prepare sample slides, according to conventional methods. The thus prepared sample slides were used for the quantification of the expression level of HER2 as the target protein.

Compound | drug efficacy (effect of reducing the tumor size) in relation to PID score of PD-L1 protein [1] | drug efficacy (effect of reducing the tumor size) in relation to PID score of HER2 protein [2] | Tumor size (size at the start of administration is taken as 100%) ([3]; Sample A (PID score 10, DAB score — before administration)) [%] | Tumor size (size at the start of administration is taken as 100%) ([3]; Sample B (PID score 30, DAB score 1+ before administration)) [%] | Tumor size (size at the start of administration is taken as 100%) ([3]; Sample C (PID score 100, DAB score 2+ before administration)) [%] | Tumor size (size at the start of administration is taken as 100%) ([3]; Sample D (PID score 200, DAB score 3+ before administration)) [%] | Tumor size (size at the start of administration is taken as 100%) ([3]; Sample E (PID score 400, DAB score 3+ before administration)) [%] | Tumor size (size at the start of administration is taken as 100%) ([3]; Sample F (PID score 800, DAB score 3+ before administration)) [%] | drug efficacy (effect of reducing the tumor size) in relation to PID score ([3]; among the PDX mice having the same DAB score of 3+)
nivolumab | increased drug efficacy (effect of reducing the tumor size) of nivolumab tend to be observed in a PDX mouse having a higher PID score of PD-L1 protein | – | – | – | – | – | – | – | –
CS(=O)(=O)CCNCc1ccc(-c2ccc3ncnc(Nc4ccc(OCc5cccc(F)c5)c(Cl)c4)c3c2)o1 [Lapatinib, lapatinib] | – | increased drug efficacy (effect of reducing the tumor size) of lapatinib tend to be observed in a PDX mouse having a higher PID score of HER2 protein | 180 | 120 | 80 | 70 | 60 | 10 | increased drug efficacy (effect of reducing the tumor size) of lapatinib tend to be observed in a PDX mouse having a higher PID score
